Test results as given in publication PMC10208570, “Peptidomimetic antibiotics disrupt the lipopolysaccharide transport bridge of drug-resistant Enterobacteriaceae” (Science Advances, 2023).
Where a SMILES comes first, the peptide text is derived from it. Bridges are numbered along the chain shown (N, C = ends). [ ]: non-standard residue; d: D form. The star is where a group is joined. X1 = CC1(CCCCS(=O)(=O)O)C(/C=C/C=C/C=C2/N(CCCS(=O)(=O)O)c3ccc(S(=O)(=O)O)cc3C2(C)C)=[N+](CCCCCC(=O)NCc2cn(CCOCCOCCOCCOCCC(=O)*)nn2)c2ccc(S(=O)(=O)[O-])cc21; Hyp = O=C(O)[C@@H]1C[C@@H](O)CN1; Pen = CC(C)(S)[C@H](N)C(=O)O; dDab = NCC[C@@H](N)C(=O)O; Dab = NCC[C@H](N)C(=O)O

What was measured:
LptAm [1] = target: T1, LptAm (Escherichia coli, UniProt P0ADV1); test: FP direct binding assay; parameters: species or system E. coli
T1 construct: His6-GB1 (N, cleaved yes); made in house; host or cells: E. coli BL21 (DE3)
T1 sequence (P0ADV1 28-159): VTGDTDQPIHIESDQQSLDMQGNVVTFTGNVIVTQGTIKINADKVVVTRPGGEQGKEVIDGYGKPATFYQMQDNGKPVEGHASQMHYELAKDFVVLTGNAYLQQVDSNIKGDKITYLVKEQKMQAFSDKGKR
Experimental: (§6) Anisotropy for the blank, the fluorescently labeled peptide only (6-FL only), was measured and subtracted from r to yield r′. The r′ data were normalized and fit to the One site − Total model on GraphPad Prism 9. A nonspecific binding factor (NS) was determined using a linear regression model (y = NS ∗ X + b) at the highest concentrations and incorporated into the fit. The dissociation constants (Kd) were calculated using the total protein concentrations using the equation y=Bmax∗X/Kd+X

LptAmD33A = target: T2, LptAmD33A (Escherichia coli, UniProt P0ADV1, D33A); test: FP direct binding assay; parameters: species or system E. coli
T2 construct: His6-GB1 (N, cleaved yes); made in house; host or cells: E. coli BL21 (DE3)
T2 sequence (P0ADV1 28-159 D33A): as the sequence (P0ADV1 28-159) above, with D6A counted along it
Experimental: as §6

LptAmQ62L [2] = target: T3, LptAmQ62L (Escherichia coli, UniProt P0ADV1, Q62L); test: FP direct binding assay; parameters: species or system E. coli
T3 construct: His6-GB1 (N, cleaved yes); made in house; host or cells: E. coli BL21 (DE3)
T3 sequence (P0ADV1 28-159 Q62L): as the sequence (P0ADV1 28-159) above, with Q35L counted along it
Experimental: as §6

LptAmQ62L, D33A = target: T4, LptAmQ62L, D33A (Escherichia coli, UniProt P0ADV1, D33A/Q62L); test: FP direct binding assay; parameters: species or system E. coli
T4 construct: His6-GB1 (N, cleaved yes); made in house; host or cells: E. coli BL21 (DE3)
T4 sequence (P0ADV1 28-159 D33A/Q62L): as the sequence (P0ADV1 28-159) above, with D6A, Q35L counted along it
Experimental: as §6

mLptA [3] = target: T5, mLptA (Escherichia coli, UniProt P0ADV1, E39V/M47A/R76A); test: biochemical; assay type: binding, E. coli
T5 construct: the LptA25–185 mutant E39V M47A R76A was selected as the best candidate; His6-GB1 (N, cleaved yes); made in house; host or cells: E. coli BL21 (DE3)
T5 sequence (P0ADV1 25-185 E39V/M47A/R76A): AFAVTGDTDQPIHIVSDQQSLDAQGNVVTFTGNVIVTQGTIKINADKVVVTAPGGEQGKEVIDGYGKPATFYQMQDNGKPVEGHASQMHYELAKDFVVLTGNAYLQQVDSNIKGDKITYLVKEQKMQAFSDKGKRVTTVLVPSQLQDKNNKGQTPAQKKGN
Experimental: (§1) Protein stocks were purified and concentrated in buffer 1 [50 mM Na-Pi (pH 7) and 150 mM NaCl] and, if necessary, diluted to desired concentrations using buffer 2 [50 mM Na-Pi (pH 7), 150 mM NaCl, and 0.05% Tween 20]. Peptide stocks and fluorescently labeled peptide stocks were made in buffer 2. Every serial dilution consisted of 24 wells, the first well with the highest concentrate and the last well (well 24) with the lowest. First, 50 μl of buffer 2 was added to the wells 2 to 24 of each serial dilution. Then, 100 μl of concentrated unlabeled peptide/protein in their respective buffers was added to the first well. […] Anisotropy was measured using the Tecan Safire2 plate reader using a 10-nm bandwidth and setting the excitation and emission wavelengths to 635 and 670 nm, respectively. The G-factor (G) was also determined empirically as 1.094 for the instrument and included in all the anisotropy calculations.
(§2) For direct binding assays, fluorescence anisotropy (r) was calculated using the parallel and perpendicular polarized intensities (I) by the equation r=I∥−I⊥∗G/I∥+2I⊥∗G
(§3) Anisotropy for the blank, the fluorescently labeled peptide only (6-FL only), was measured and subtracted from r to yield r′. […] A nonspecific binding factor (NS) was determined using a linear regression model (y = NS ∗ X + b) at the highest concentrations and incorporated into the fit.

mLptAQ62L = target: T6, mLptAQ62L (Escherichia coli, UniProt P0ADV1, E39V/M47A/Q62L/R76A); test: biochemical; assay type: binding, E. coli
T6 construct: the LptA25–185 mutant E39V M47A R76A was selected as the best candidate; His6-GB1 (N, cleaved yes); made in house; host or cells: E. coli BL21 (DE3)
T6 sequence (P0ADV1 25-185 E39V/M47A/Q62L/R76A): as the sequence (P0ADV1 25-185 E39V/M47A/R76A) above, with Q38L counted along it
Experimental: as §1, §2, §3

LptAmQ62L [4] = conditions: read-out: Kd ± 95CI, K. pneumoniae LptAmQ62L; FP direct binding of 6-FL; triplicates; ± 95% CI of fit
Experimental: (§4) Protein stocks were purified and concentrated in buffer 1 [50 mM Na-Pi (pH 7) and 150 mM NaCl] and, if necessary, diluted to desired concentrations using buffer 2 [50 mM Na-Pi (pH 7), 150 mM NaCl, and 0.05% Tween 20]. Peptide stocks and fluorescently labeled peptide stocks were made in buffer 2. Every serial dilution consisted of 24 wells, the first well with the highest concentrate and the last well (well 24) with the lowest. First, 50 μl of buffer 2 was added to the wells 2 to 24 of each serial dilution. Then, 100 μl of concentrated unlabeled peptide/protein in their respective buffers was added to the first well. Fifty microliters were taken from the first well and added to the second well for a 1:1 serial dilution and continued for the 24 wells. […] Plates were covered with adhesive seals and left to incubate overnight at 4°C before FP measurements the next day. Anisotropy was measured using the Tecan Safire2 plate reader using a 10-nm bandwidth and setting the excitation and emission wavelengths to 635 and 670 nm, respectively. The G-factor (G) was also determined empirically as 1.094 for the instrument and included in all the anisotropy calculations.
as §2
(§5) Anisotropy for the blank, the fluorescently labeled peptide only (6-FL only), was measured and subtracted from r to yield r′. The r′ data were normalized and fit to the One site − Total model on GraphPad Prism 9. A nonspecific binding factor (NS) was determined using a linear regression model (y = NS ∗ X + b) at the highest concentrations and incorporated into the fit.

LptAm [5] = conditions: read-out: Kd ± 95CI, K. pneumoniae LptAm; FP direct binding of 6-FL; triplicates; ± 95% CI of fit
Experimental: as §4, §2, §5

mLptA [6] = conditions: read-out: Kd ± 95CI, K. pneumoniae mLptA; FP direct binding of 6-FL; triplicates; ± 95% CI of fit
Experimental: as §4, §2, §5

**Q.** Which Kd (LptAm [1]) does the source give for `CC[C@H](C)[C@H](NC(=O)[C@@H]1C[C@@H](O)CN1C(=O)[C@@H](N)C(C)C)C(=O)N[C@H](C(=O)N[C@@H](Cc1ccc(O)cc1)C(=O)N[C@@H]1C(=O)N[C@@H](CC(N)=O)C(=O)N[C@@H](CCCNC(=N)N)C(=O)N[C@@H](CCN)C(=O)N[C@@H](CCCCNC(=O)CCOCCOCCOCCOCCn2cc(CNC(=O)CCCCC[N+]3=C(/C=C/C=C/C=C4/N(CCCS(=O)(=O)O)c5ccc(S(=O)(=O)O)cc5C4(C)C)C(C)(CCCCS(=O)(=O)O)c4cc(S(=O)(=O)[O-])ccc43)nn2)C(=O)N[C@H](CCN)C(=O)N[C@@H](CCCCN)C(=O)N[C@H](C(=O)N[C@@H](CCN)C(=O)N[C@@H](CCCNC(=N)N)C(=O)N[C@@H](Cc2ccc(O)cc2)C(=O)O)CSSC1(C)C)[C@@H](C)O` (stereo partly drawn) [6-FL] (H-V[Hyp]ITY[Pen]NR[Dab]K(X1)[dDab]KC[Dab]RY-OH; disulfide 6-13) here?
**A.** 6.9 ± 1.7 nM

**Q.** And the Kd (LptAmD33A)?
**A.** 13.8 ± 8.2 nM

**Q.** What about the Kd (LptAmQ62L [2]) of the same compound?
**A.** 73.3 ± 21.3 nM

**Q.** What about the Kd (LptAmQ62L, D33A) of the same compound?
**A.** 82.4 ± 10.3 nM

**Q.** What about the Kd (mLptA [3]) of the same compound?
**A.** 968 ± 191 nM

**Q.** What about the Kd (mLptAQ62L) of the same compound?
**A.** 8140 ± 1180 nM

**Q.** What about the Kd (LptAmQ62L [4]) of the same compound?
**A.** 242 ± 45.1 nM

**Q.** And the Kd (LptAm [5])?
**A.** 3.7 ± 0.9 nM

**Q.** What about the Kd (mLptA [6]) of the same compound?
**A.** 453 ± 29.3 nM
